Reference: US6914045B2, “Glycopeptide antibiotics” (Wyeth Holdings Corporation, priority 2001, dated 2005)
In brackets after ≈: the same amount, converted by molar mass.

Key:
[1] = system: Staphylococcus aureus-SMITH (GC 4543); assay: acute lethal infection in mice; type: in vivo; settings: acute lethal infection, female CD-1 mice, intraperitoneal challenge, intravenous 30 min. after infection, 7 day survival
Outline: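 Intraperitoneal challenge of female CD-1 mice with a bacterial dose lethal to untreated animals within 24-48 hr; single iv treatment 30 min later, 5 mice per dose level. Survival is scored at day 7 and pooled from three experiments to give the median effective dose.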

Streptococcus sp. = assay: in vitro antibacterial evaluation, MIC by broth dilution; type: cell-based; settings: broth dilution, 18 hours at 35° C.
Outline: (§1)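 Following National Committee for Clinical Laboratory Standards recommendations (M7-A2), susceptibility was measured by dilution in Muller-Hinton II […]. Bacteria were seeded at 5×10^5 CFU/mL against compound concentrations from 64 down to 0.06 μg/mL.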

Enterococcus sp. = assay: as above; type: cell-based; settings: broth dilution, 18 hours at 35° C.
Outline: as §1

Staphylococcus sp. = assay: as above; type: cell-based; settings: broth dilution, 18 hours at 35° C.; for MIC Staphylococcus aureus (GC 1131): strain GC 1131
Outline: as §1

Escherichia coli = assay: as above; type: cell-based
Outline: as §1

CC(c1ccccc1)C1NC(=O)CNC(=O)C(CO)NC(=O)C(C(O)C2CNC(=N)N2C2OC(CO)C(O)C(O)C2O)NC(=O)C(C(O)C2CNC(=N)N2)NC(=O)C(Cc2ccc(OC3OC(CO)C(OC4OC5COC(c6ccc7c(c6)OCO7)OC5C(O)C4O)C(O)C3O)cc2)NC1=O (stereo not drawn) [Example 143, Cyclo[glycyl-β-methylphenylalanyl-O-[4-O-[4,6-O-(1,3-benzodioxol-5-ylmethylene)hexopyranosyl]hexopyranosyl]tyrosyl-3-(2-iminoimidazolidin-4-yl)seryl-3-(3-hexopyranosyl-2-iminoimidazolidin-4-yl)serylseryl]]
median effective dose (ED50), Staphylococcus aureus-SMITH (GC 4543) [1]: 0.28 mg/kg
MIC Streptococcus agalactiae (GC 4564) (Streptococcus sp.; Streptococcus agalactiae (GC 4564)): 0.5 to 1 µg/mL
MIC Streptococcus pneumoniae (ATCC 6301) (Streptococcus sp.; Streptococcus pneumoniae (ATCC 6301)): 0.12 to 0.5 µg/mL
MIC Streptococcus pneumoniae (GC 1894) (Streptococcus sp.; Streptococcus pneumoniae (GC 1894)): <0.06 to 0.12 µg/mL
MIC Streptococcus pneumoniae (GC 4565) (Streptococcus sp.; Streptococcus pneumoniae (GC 4565)): 0.25 to 0.5 µg/mL
MIC Streptococcus pyogenes (GC 4563) (Streptococcus sp.; Streptococcus pyogenes (GC 4563)): 0.25 to 1 µg/mL
MIC Streptococcus pneumoniae (ATCC 6301) (Streptococcus sp.; strain ATCC 6301): 0.12 to 0.5 µg/mL
MIC Streptococcus pneumoniae (GC 1894) (Streptococcus sp.; strain GC 1894): <0.06 to 0.12 µg/mL
MIC Streptococcus pyogenes (GC 4563) (Streptococcus sp.; strain GC 4563): 0.25 to 1 µg/mL
MIC Streptococcus agalactiae (GC 4564) (Streptococcus sp.; strain GC 4564): 0.5 to 1 µg/mL
MIC Streptococcus pneumoniae (GC 4565) (Streptococcus sp.; strain GC 4565): 0.25 to 0.5 µg/mL
MIC Enterococcus avium (GC 4558) (Enterococcus sp.; Enterococcus avium (GC 4558)): 8 to 16 µg/mL
MIC Enterococcus faecalis (ATCC 29212) (Enterococcus sp.; Enterococcus faecalis (ATCC 29212)): 8 to 16 µg/mL
MIC Enterococcus faecalis (GC 2242) (Enterococcus sp.; Enterococcus faecalis (GC 2242)): 4 to 16 µg/mL
MIC Enterococcus faecalis (GC 2691) (Enterococcus sp.; Enterococcus faecalis (GC 2691)): 8 µg/mL (≈ 5.6 µM)
MIC Enterococcus faecalis (GC 3059) (Enterococcus sp.; Enterococcus faecalis (GC 3059)): 8 to 16 µg/mL
MIC Enterococcus faecalis (GC 4552) (Enterococcus sp.; Enterococcus faecalis (GC 4552)): 8 to 16 µg/mL
MIC Enterococcus faecalis (GC 4553) (Enterococcus sp.; Enterococcus faecalis (GC 4553)): 8 to 16 µg/mL
MIC Enterococcus faecalis (GC 4554) (Enterococcus sp.; Enterococcus faecalis (GC 4554)): 8 to 16 µg/mL
MIC Enterococcus faecalis (GC 6189) (Enterococcus sp.; Enterococcus faecalis (GC 6189)): 4 to 16 µg/mL
MIC Enterococcus faecium (GC 2243) (Enterococcus sp.; Enterococcus faecium (GC 2243)): 8 to 16 µg/mL
MIC Enterococcus faecium (GC 4556) (Enterococcus sp.; Enterococcus faecium (GC 4556)): 8 to 16 µg/mL
MIC Enterococcus faecium (GC 4557) (Enterococcus sp.; Enterococcus faecium (GC 4557)): 2 to 8 µg/mL
MIC Enterococcus faecalis (ATCC 29212) (Enterococcus sp.; strain ATCC 29212): 8 to 16 µg/mL
MIC Enterococcus faecalis (GC 2242) (Enterococcus sp.; strain GC 2242): 4 to 16 µg/mL
MIC Enterococcus faecium (GC 2243) (Enterococcus sp.; strain GC 2243): 8 to 16 µg/mL
MIC Enterococcus faecalis (GC 2691) (Enterococcus sp.; strain GC 2691): 8 µg/mL (≈ 5.6 µM)
MIC Enterococcus faecalis (GC 3059) (Enterococcus sp.; strain GC 3059): 8 to 16 µg/mL
MIC Enterococcus faecalis (GC 4552) (Enterococcus sp.; strain GC 4552): 8 to 16 µg/mL
MIC Enterococcus faecalis (GC 4553) (Enterococcus sp.; strain GC 4553): 8 to 16 µg/mL
MIC Enterococcus faecalis (GC 4554) (Enterococcus sp.; strain GC 4554): 8 to 16 µg/mL
MIC Enterococcus faecium (GC 4556) (Enterococcus sp.; strain GC 4556): 8 to 16 µg/mL
MIC Enterococcus faecium (GC 4557) (Enterococcus sp.; strain GC 4557): 2 to 8 µg/mL
MIC Enterococcus avium (GC 4558) (Enterococcus sp.; strain GC 4558): 8 to 16 µg/mL
MIC Enterococcus faecalis (GC 6189) (Enterococcus sp.; strain GC 6189): 4 to 16 µg/mL
MIC Staphylococcus aureus (GC 1131) (Staphylococcus sp.; inoculum 5×10^5 CFU/mL): 2 to 4 µg/mL
MIC Staphylococcus aureus (ATCC 29213) (Staphylococcus sp.; strain ATCC 29213): 2 to 4 µg/mL
MIC Staphylococcus aureus (GC 1131) (Staphylococcus sp.): 2 to 4 µg/mL
MIC Staphylococcus aureus (GC 3051) (Staphylococcus sp.; strain GC 3051): 2 to 4 µg/mL
MIC Staphylococcus aureus (GC 3053) (Staphylococcus sp.; strain GC 3053): 4 to 8 µg/mL
MIC Staphylococcus aureus (GC 4541) (Staphylococcus sp.; strain GC 4541): 2 to 4 µg/mL
MIC Staphylococcus aureus (GC 4542) (Staphylococcus sp.; strain GC 4542): 1 to 4 µg/mL
MIC Staphylococcus aureus-SMITH (GC 4543) (Staphylococcus sp.; strain GC 4543): 2 to 4 µg/mL
MIC Staphylococcus aureus (GC 4544) (Staphylococcus sp.; strain GC 4544): 2 to 8 µg/mL
MIC Staphylococcus aureus (GC 4545) (Staphylococcus sp.; strain GC 4545): 2 to 4 µg/mL
MIC Staphylococcus haemolyticus (GC 4546) (Staphylococcus sp.; strain GC 4546): 0.5 to 2 µg/mL
MIC Coagulase Negative Staphylococcus (GC 4547) (Staphylococcus sp.; strain GC 4547): 1 to 2 µg/mL
MIC Coagulase Negative Staphylococcus (GC 4548) (Staphylococcus sp.; strain GC 4548): 1 to 2 µg/mL
MIC Coagulase Negative Staphylococcus (GC 4549) (Staphylococcus sp.; strain GC 4549): 1 µg/mL (≈ 0.701 µM)
MIC Coagulase Negative Staphylococcus (GC 4551) (Staphylococcus sp.; strain GC 4551): 2 to 4 µg/mL
MIC Coagulase Negative Staphylococcus (GC 6257) (Staphylococcus sp.; strain GC 6257): 1 to 2 µg/mL
MIC Staphylococcus aureus-SMITH (GC 4543) (Staphylococcus sp.; strain SMITH GC 4543): 2 to 4 µg/mL
MIC Escherichia coli (ATCC 25922) (Escherichia coli; strain ATCC 25922, 18 hours at 35° C.): >64 µg/mL
MIC Escherichia coli (GC 4559) (Escherichia coli; strain GC 4559, 18 hours at 35° C.): 64 µg/mL (≈ 44.8 µM)
MIC Escherichia coli (GC 4560) (Escherichia coli; strain GC 4560, 18 hours at 35° C.): 1 to 2 µg/mL
